Data on five compounds can be found in DBAASP.

Converted amounts (≈) assume the structure as drawn. “And” between values parts separate entries of the source, which are not always exact repeats. Equal values may be shown once.

Some test systems named below: Candida albicans; Pseudomonas aeruginosa; Staphylococcus aureus; Streptococcus agalactiae; Escherichia coli UB1005; Pseudomonas aeruginosa 9; Aspergillus fumigatus; Bibersteinia trehalosi; Klebsiella pneumoniae; Pasteurella multocida; Pseudomonas fluorescens; Ralstonia pickettii.
Holding throughout (assay): ≥ marks a high value that may be exact or a test limit, other limits are often not marked, values filed in µg/mL are converted to µM
For assay [1], the system named is Acinetobacter calcoaceticus.
Assay [2] deals with Enterococcus faecalis ATCC 29212.
The test system of assay [3] is Escherichia coli ATCC 25922.
The subject of assay [4] is Pseudomonas aeruginosa ATCC 27853.
Assay [5] concerns Pseudomonas aeruginosa wt.
The test system of assay [6] is Staphylococcus aureus ATCC 25923.
Assay [7] has as its system Enterobacter cloacae 218R.
For assay [8], the system named is Enterococcus faecalis W61950.
Assay [9] concerns Enterococcus faecium mic80.
The test system of assay [10] is Enterococcus faecium t62764.
Assay [11] concerns Escherichia coli ESBL 63103.
Assay [12] has as its system Escherichia coli ESBL 64771.
For assay [13], the system named is Klebsiella pneumoniae ESBL 61962.
Assay [14] relates to Klebsiella pneumoniae ESBL 63575.
Assay [15] has as its system Pseudomonas aeruginosa 198.
For assay [16], the system named is Pseudomonas aeruginosa H1027.
Assay [17] deals with Pseudomonas aeruginosa H1030.
The subject of assay [18] is Pseudomonas aeruginosa H103.
The test system of assay [19] is Pseudomonas aeruginosa PAO1 H103.
Assay [20] has as its system Salmonella enterica serovar Typhimurium.
The test system of assay [21] is Staphylococcus aureus C623.
The subject of assay [22] is Staphylococcus epidermidis.
In assay [23] the test system is Stenotrophomonas maltophilia ATCC 13637.
Assay [24] concerns Corynebacterium pseudotuberculosis ATCC 19410.
Assay [25] deals with Mannheimia haemolytica Serovar 1.
The subject of assay [26] is Mannheimia haemolytica Serovar 2.
The subject of assay [27] is Mannheimia haemolytica Serovar 6.
The subject of assay [28] is Pseudomonas aeruginosa PAO1.
Assay [29] deals with Salmonella enterica subsp. arizonae.
The subject of assay [30] is Achromobacter xylosoxidans.
The test system of assay [31] is Pseudomonas aeruginosa M1251.
In assay [32] the test system is Pseudomonas aeruginosa M1426.
Assay [33] relates to Pseudomonas aeruginosa M76.
Assay [34] concerns Pseudomonas aeruginosa M917.
Assay [35] has as its system Pseudomonas aeruginosa R70.
Assay [36] has as its system Stenotrophomonas maltophilia.
Assay [37] relates to Bacillus subtilis ATCC 6633.
Assay [38] relates to Staphylococcus aureus FDA 209P.

For `CC[C@H](C)[C@H](NC(=O)[C@H](C)NC(=O)[C@H](CO)NC(=O)[C@@H](NC(=O)[C@H](C)NC(=O)[C@H](CC(N)=O)NC(=O)[C@@H](NC(=O)[C@H](C)NC(=O)[C@H](Cc1cnc[nH]1)NC(=O)[C@@H]1CCCN1C(=O)[C@@H](NC(=O)[C@H](CC(C)C)NC(=O)[C@H](CO)NC(=O)[C@H](CC(C)C)NC(=O)[C@@H](N)Cc1ccccc1)[C@@H](C)CC)[C@@H](C)CC)C(C)C)C(=O)N[C@@H](C)C(=O)N[C@@H](CCCCN)C(=O)N[C@@H](Cc1cnc[nH]1)C(=O)N[C@@H](CC(N)=O)C(N)=O` [FLSLIPHAINAVSAIAKHN], the MIC in assay [1] is 7.9 µM (≈ 15.9 µg/mL); against Candida albicans, 7.9 µM (≈ 15.9 µg/mL); in assay [2], 4 µM (≈ 8.06 µg/mL); in [3], 7.9 µM (≈ 15.9 µg/mL); in assay [4] it was 4 µM (≈ 8.06 µg/mL); in [5], 3 µM (≈ 6.05 µg/mL). Besides, the MIC against Pseudomonas aeruginosa worked out at 31.7 µM (≈ 63.9 µg/mL); in assay [6] it was 7.9 µM (≈ 15.9 µg/mL); in the assay on Staphylococcus aureus, 15.8 µM (≈ 31.8 µg/mL); against Streptococcus agalactiae, 3.9 µM (≈ 7.86 µg/mL).

On to `CC[C@H](C)[C@H](NC(=O)[C@@H](N)CCCCN)C(=O)N[C@@H](Cc1c[nH]c2ccccc12)C(=O)N[C@@H](Cc1c[nH]c2ccccc12)C(=O)N[C@@H](Cc1c[nH]c2ccccc12)C(=O)N[C@@H](Cc1c[nH]c2ccccc12)C(=O)N[C@@H](CCCN=C(N)N)C(=O)N[C@@H](CCCCN)C(=O)N[C@@H](CCCN=C(N)N)C(=O)O` [KIWWWWRKR], for which the MIC against Candida albicans was 10.6 µM (≈ 15.3 µg/mL); in [7], no less than 45 µM; in assay [2], 11.8 µM (≈ 17 µg/mL); in assay [8], no less than 45 µM; in assay [9], 2.84 µM (≈ 4.1 µg/mL); in assay [10] it was 0.692 µM (≈ 1 µg/mL). The MIC was 5.75 µM (≈ 8.3 µg/mL) in assay [11]; 2.84 µM (≈ 4.1 µg/mL) in assay [12]; 5.3 µM (≈ 7.66 µg/mL) against Escherichia coli UB1005; no less than 90 µM in assay [13]; 22.1 µM (≈ 32 µg/mL) in assay [14]; 11.8 µM (≈ 17 µg/mL) in assay [15]. For the same compound, the MIC in the assay on Pseudomonas aeruginosa 9 is 22.1 µM (≈ 32 µg/mL); in assay [16], 2.84 µM (≈ 4.1 µg/mL); in assay [17], 5.75 µM (≈ 8.3 µg/mL); in assay [18] it was no less than 42.3 µM; in assay [19] it was 2.84 µM (≈ 4.1 µg/mL); in [20], 10.6 µM (≈ 15.3 µg/mL). The MIC came out at 2.84 µM (≈ 4.1 µg/mL) in assay [6], 2.84 µM (≈ 4.1 µg/mL) in [21], 1.3 µM (≈ 1.88 µg/mL) in [22] and 1.45 µM (≈ 2.1 µg/mL) in [23].

In the case of `CC[C@H](C)[C@H](NC(=O)[C@@H](NC(=O)[C@H](Cc1cnc[nH]1)NC(=O)[C@@H](NC(=O)[C@@H](NC(=O)[C@H](CCCCN)NC(=O)[C@H](CCCN=C(N)N)NC(=O)[C@@H](NC(=O)[C@@H](NC(=O)[C@H](CCCN=C(N)N)NC(=O)[C@@H](N)CCCN=C(N)N)[C@@H](C)CC)[C@@H](C)CC)[C@@H](C)CC)[C@@H](C)CC)[C@@H](C)CC)C(N)=O` [RRIIRKIIHII], the MIC in the assay with Aspergillus fumigatus came to 14 µM (≈ 20 µg/mL); with Bibersteinia trehalosi, 14 µM (≈ 20 µg/mL); in [24], 14 µM (≈ 20 µg/mL); in the assay on Klebsiella pneumoniae, 10.5 µM (≈ 15 µg/mL); in assay [25] it was 11.7 µM (≈ 16.7 µg/mL); in [26], 5.8 µM (≈ 8.29 µg/mL). Besides, the MIC is 5.8 µM (≈ 8.29 µg/mL) in assay [27]; 14 µM (≈ 20 µg/mL) in the assay on Pasteurella multocida; 14 µM (≈ 20 µg/mL) in [28]; 14 µM (≈ 20 µg/mL) in assay [29]; greater than 14 µM in the assay with Staphylococcus aureus.

For `CC(C)C[C@H](NC(=O)[C@H](C)NC(=O)[C@H](CC(C)C)NC(=O)[C@H](C)NC(=O)[C@H](CC(C)C)NC(=O)[C@H](CCCCN)NC(=O)[C@H](C)NC(=O)[C@H](CC(C)C)NC(=O)[C@H](CCCCN)NC(=O)[C@H](CCCCN)NC(=O)[C@H](C)NC(=O)[C@H](CC(C)C)NC(=O)[C@H](CCCCN)NC(=O)[C@H](C)NC(=O)[C@H](CC(C)C)NC(=O)[C@H](CCCCN)NC(=O)[C@H](CCCCN)NC(=O)[C@H](C)NC(=O)[C@@H](N)C(C)C)C(N)=O` [VAKKLAKLAKKLAKLALAL], the MIC in assay [30] was no less than 32.1 µM; with Candida albicans it was 8.03 µM (≈ 16 µg/mL); with Escherichia coli UB1005 it was no less than 32.1 µM; in assay [31] it was 4.02 µM (≈ 8 µg/mL); in assay [32] it was 4.02 µM (≈ 8 µg/mL); in [33], 4.02 µM (≈ 8 µg/mL). Besides, the MIC was 8.03 µM (≈ 16 µg/mL) in [34]; 16.1 µM (≈ 32 µg/mL) in [28]; 4.02 µM (≈ 8 µg/mL) in [35]; 4.02 µM and 5.68 µM in the assay with Pseudomonas aeruginosa; 4.02 µM (≈ 8 µg/mL) in the assay on Pseudomonas fluorescens; 4.02 µM (≈ 8 µg/mL) in the assay with Ralstonia pickettii. Further, the figures for the minimal inhibitory concentration (MIC) (in assay [20]; against Staphylococcus aureus; in [36]) were no less than 32.1 µM, 16.1 µM (≈ 32 µg/mL) and 2.01 µM (≈ 4 µg/mL), respectively.

On to `CC[C@H](C)[C@H](NC(=O)[C@@H](N)C(C)C)C(=O)N[C@@H](CC(=O)O)C(=O)N[C@@H](CC(=O)O)C(=O)N[C@@H](CC(C)C)C(=O)N[C@@H](CCCCN)C(=O)N[C@@H](CCCCN)C(=O)N[C@H](C(=O)N[C@@H](C)C(=O)N[C@@H](CCCCN)C(=O)N[C@@H](CCCCN)C(=O)N[C@H](C(=O)N[C@@H](CCCN=C(N)N)C(=O)N[C@@H](CCCN=C(N)N)C(=O)N[C@@H](CCC(=O)O)C(=O)N[C@@H](CC(C)C)C(=O)N[C@@H](CC(C)C)C(=O)N[C@@H](CS)C(=O)N[C@@H](CCCCN)C(=O)N[C@@H](CCCCN)C(=O)N[C@@H](Cc1cnc[nH]1)C(=O)N[C@@H](Cc1cnc[nH]1)C(=O)N[C@@H](CCCCN)C(=O)N[C@@H](CCCCN)C(=O)N[C@@H](CC(C)C)C(=O)N[C@@H](CC(N)=O)C(=O)O)C(C)C)C(C)C` [VIDDLKKVAKKVRRELLCKKHHKKLN], for which the MIC turned out to be 20.4 µM (≈ 64 µg/mL) in [37] and 11.3 µM (≈ 35.5 µg/mL) in assay [38].
